Measured values published in ChEMBL document CHEMBL2074298, “Inhibition of vinblastine efflux mediated by P-glycoprotein by grapefruit juice components in caco-2 cells” (Biol Pharm Bull, 1998).

What was measured:
[1] = target: T1, ATP-dependent translocase ABCB1 (Homo sapiens, UniProt P08183); assay: TP_TRANSPORTER: increase in Vinblastine transepithelial transpot (apical to basal) (Vinblastine: 0.01 uM, GFJ: 50 %) in Caco-2 cells; format: functional, cell-based
[2] = target: T1, ATP-dependent translocase ABCB1; assay: TP_TRANSPORTER: increase in Vinblastine transepithelial transpot (apical to basal)(Vinblastine: 0.01 uM, Naringenin: 855 uM) in Caco-2 cells; format: functional, cell-based; settings: caco-2, 855 µM

T1 sequence (P08183 whole entry): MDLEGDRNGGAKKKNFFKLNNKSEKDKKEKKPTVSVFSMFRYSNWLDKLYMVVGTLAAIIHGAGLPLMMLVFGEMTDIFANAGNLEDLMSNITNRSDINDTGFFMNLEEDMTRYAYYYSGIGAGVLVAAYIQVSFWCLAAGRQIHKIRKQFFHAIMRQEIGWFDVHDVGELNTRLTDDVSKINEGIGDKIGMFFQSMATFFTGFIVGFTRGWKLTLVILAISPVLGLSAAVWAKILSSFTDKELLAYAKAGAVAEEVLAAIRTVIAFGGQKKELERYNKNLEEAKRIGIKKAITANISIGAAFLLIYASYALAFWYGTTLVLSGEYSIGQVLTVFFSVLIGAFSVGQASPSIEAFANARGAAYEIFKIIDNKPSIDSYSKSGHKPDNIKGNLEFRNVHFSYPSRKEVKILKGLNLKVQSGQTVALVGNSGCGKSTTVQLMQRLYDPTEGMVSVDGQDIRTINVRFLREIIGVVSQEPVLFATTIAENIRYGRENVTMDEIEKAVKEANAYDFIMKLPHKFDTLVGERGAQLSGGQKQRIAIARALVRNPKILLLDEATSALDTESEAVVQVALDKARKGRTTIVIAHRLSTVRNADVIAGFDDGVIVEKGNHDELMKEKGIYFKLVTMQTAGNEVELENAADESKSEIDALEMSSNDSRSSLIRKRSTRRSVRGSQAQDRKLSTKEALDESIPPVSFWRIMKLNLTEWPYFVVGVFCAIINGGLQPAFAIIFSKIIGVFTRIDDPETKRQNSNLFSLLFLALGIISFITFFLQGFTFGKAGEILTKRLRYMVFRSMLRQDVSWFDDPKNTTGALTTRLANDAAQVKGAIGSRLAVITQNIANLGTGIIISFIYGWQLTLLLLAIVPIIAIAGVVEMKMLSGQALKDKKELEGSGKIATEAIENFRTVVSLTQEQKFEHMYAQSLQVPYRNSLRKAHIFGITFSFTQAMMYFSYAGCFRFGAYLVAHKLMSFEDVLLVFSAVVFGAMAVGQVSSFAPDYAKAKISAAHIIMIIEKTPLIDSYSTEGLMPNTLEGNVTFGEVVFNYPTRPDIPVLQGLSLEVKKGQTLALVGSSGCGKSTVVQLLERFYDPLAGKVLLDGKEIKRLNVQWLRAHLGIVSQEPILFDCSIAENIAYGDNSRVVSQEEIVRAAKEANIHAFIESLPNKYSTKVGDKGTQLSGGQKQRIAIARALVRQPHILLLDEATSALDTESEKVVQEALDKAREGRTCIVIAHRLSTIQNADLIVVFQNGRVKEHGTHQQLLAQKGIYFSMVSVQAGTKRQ

Row | Compound | Activity [1] [%] | Activity [2] [%]
1 | GRAPEFRUIT JUICE | 240 | 
2 | O=C1C[C@@H](c2ccc(O)cc2)Oc2cc(O)cc(O)c21 [NARINGENIN] |  | 240
